Data on 6 molecules can be found in US12338443B2, “Photoactivatable Tet expression control system” (JAPAN SCIENCE AND TECHNOLOGY AGENCY, priority 2018, dated 2025).

Test [1] relates to pTREtight-Ub-ELuc reporter in HEK293T cells. Kind of test: Relationship between Dox concentration and gene expression induction, near-infrared light (Table 9). In kind it is cell-based, human. Also on record: scale not given here. The note with it: 25 μM BV; for Light: near-infrared light 750 nm. The protocol: Next, for QT4, QT7 and QT8 constructs, the relationship between Dox concentration and gene expression induction was investigated. Specifically, the relationship was investigated in the same manner as in “Functional screening of PA-Tet-OFF candidate constructs” described above, except that HEK293T cells were seeded in a 24-well plate at 6×10^4 cells/well, the medium was replaced with a medium containing 25 μM BV and having Dox concentration described in Table 9 6 hours after transfection, the cells were irradiated with near-infrared light (750 nm, 4.0 mW/cm^2) for 42 hours by being exposed to light for 30 seconds every 180 seconds, and a 750 nm LED (SMBB750D-1100, manufactured by Ushio Inc.) was used as a light source. All experiments were performed in 3 independent trials (3 batches) to obtain consistent results.

The test system is the same in test [2]. As to the kind of experiment: PA-Tet-independent / PA-Tet-ON construct luciferase assay with or without Dox (Example 3, Table 5). In kind it is cell-based, human. The note with it: first batch; for An initial construct screening result: Light (relative luminescence signal intensity): blue light. The protocol:
For each construct, a plasmid containing the expression cassette was introduced into HEK293T cells together with a pTREtight-Ub-ELuc reporter, thereby obtaining transformed cells. These cells were irradiated with blue light in the absence of Dox or in the presence of Dox, and the light-dependent transcriptional activity of Ub-ELuc was investigated. All experiments were performed in 3 independent trials (3 batches) to obtain consistent results.

The subject of test [3] is brain neurons of mouse pups. Kind of test: Light- and Dox-dependent luciferase expression in brain neurons of mouse pups. It counts as in vivo. The conditions noted are these: PA-Tet-OFF system; after single dosing of Dox 0.1 mg/g. The protocol:
For irradiating the brains of mouse pups with light, anesthetized mice were stimulated through an optical fiber using a blue LED (PLEXBRIGHT®, manufactured by Plexon Inc). After being irradiated with blue light (40 W/m^2; pulsed for 1 second every 15 seconds; continued for 3 hours), the mice were immediately sacrificed, the right brain irradiated with blue light was immediately extracted and lysed, and the luciferase activity thereof was measured.
The mice were treated with Dox. For long-term Dox administration, drinking water containing 1 mg/mL Dox in a 5% by mass sucrose solution was given to the mice. […]
Next, Dox-dependent inhibition of transcriptional activity of the PA-Tet-OFF system in brain neurons was analyzed. […] The luminescence signal intensity induced by the luciferase expression in the brain cells after the light irradiation treatment was measured. Furthermore, for mice treated with Dox (0.1 mg/g (body weight)) 1 hour before the light irradiation treatment, the luminescence signal intensity was also measured in the same manner. In the mouse brain neurons (represented by “Light” in FIG. 25) subjected to the light irradiation treatment, luciferase expression was activated, and the luminescence signal intensity increased. […]
Furthermore, the restoration of light-inducible transcriptional activity after removal of Dox was analyzed in cells transfected with the PA-Tet-OFF system. […]

For test [4], the system named is pTREtight-Ub-ELuc reporter in HEK293T cells. Kind of test: Relationship between Dox concentration and induced gene expression level (FIG. 7). In kind it is cell-based, human. The protocol:
In order to analyze the relationship between the Dox concentration and the induced gene expression level, HEK293T cells were seeded in a 24-well plate at 5 to 9×10^4 cells/well, transfected, and assayed in the same manner as in candidate construct screening. Dox was applied to the cells at concentrations of 0, 1, 7.5, 15, 20, 50, and 100 ng/mL for the PA-Tet-OFF constructs and at concentrations of 0, 10, 15, 20, 30, 35, 40, 50, 75, 100, and 250 ng/mL for the PA-Tet-ON constructs. The cells were irradiated with blue light (7.2 W/m^2; pulsed for 2 seconds every minute) for 3 hours.
In addition, for the PA-Tet-OFF system using the PA-Tet-OFF-T2A construct and the PA-Tet-independent system using the PA-Tet-H100Y construct, the influence of DOx concentration on the PA-Tet-controlled expression efficiency was investigated. Furthermore, for the PA-Tet-ON system using a construct obtained by introducing a V10 mutation into the PA-Tet-OFF-T2A construct (PA-Tet-ON-T2A construct), the influence of Dox concentration on the PA-Tet-controlled expression efficiency was investigated. The data represent mean±standard deviation (n=3) obtained from one experiment. In FIGS. 7(A) and 7(B), “*” means p<0.05 (paired student's t-test).

For test [5], the target named is T1, CIB1 (Arabidopsis thaliana, UniProt Q8GY61).
T1 sequence (Q8GY61 1-335): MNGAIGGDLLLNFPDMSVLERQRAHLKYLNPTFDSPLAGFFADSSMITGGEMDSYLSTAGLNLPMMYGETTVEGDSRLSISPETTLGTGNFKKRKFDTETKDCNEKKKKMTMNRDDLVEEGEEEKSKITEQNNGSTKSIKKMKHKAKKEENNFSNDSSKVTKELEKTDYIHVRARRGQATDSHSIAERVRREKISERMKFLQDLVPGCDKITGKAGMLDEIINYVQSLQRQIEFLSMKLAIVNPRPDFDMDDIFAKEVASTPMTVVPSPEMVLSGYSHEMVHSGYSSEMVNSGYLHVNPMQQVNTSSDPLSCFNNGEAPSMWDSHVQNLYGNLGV
The note with it: after light activation; cited from earlier work.

Turning to “QT4: TetR(I194T)-SPKKK-HMEF-RpBphP1 + 2xNLS-p65AD-HMEF-Q-PAS1 (SEQ ID NO: 26, 27)”, the Light is reported as 17.7 in test [1] (Dox 0 ng/mL); 20.6 in test [1] (Dox 0.025 ng/mL); 10.7 in test [1] (Dox 0.050 ng/mL); 10.1 in test [1] (Dox 0.100 ng/mL); 2.9 in test [1] (Dox 0.200 ng/mL); 0.2 in test [1] (Dox 1.0 ng/mL). Moreover, the Dark in test [1] (Dox 0.100 ng/mL) amounted to 0.5; in test [1] (Dox 0.200 ng/mL), 0.3; in test [1] (Dox 0.500 ng/mL), 0.2; in test [1] (Dox 1.0 ng/mL) it was 0.2.
Turning to “QT7: RpBphP1-TSTR-TetR(I194T) + p65AD-HMEF-Q-PAS1 (SEQ ID NO: 28, 29)”, the Light is given as 53.7 in test [1] (Dox 0 ng/mL); 29.9 in test [1] (Dox 1.0 ng/mL); 34.7 in test [1] (Dox 2.0 ng/mL); 25.0 in test [1] (Dox 3.0 ng/mL); 17.6 in test [1] (Dox 4.0 ng/mL); 16.4 in test [1] (Dox 5.0 ng/mL). The same molecule yielded a Light in test [1] (Dox 10.0 ng/mL) of 3.7. The Dark was found to be 2.9 in test [1] (Dox 1.0 ng/mL); 2.7 in test [1] (Dox 2.0 ng/mL); 1.3 in test [1] (Dox 4.0 ng/mL); 1.6 in test [1] (Dox 5.0 ng/mL); 0.3 in test [1] (Dox 10.0 ng/mL).
Regarding “T86: TetR(I194T)-SPKKK-CIBN no NLS + Cry2 PHR (L348F)-p65 AD-NLSx2 (Element #1 SEQ ID NO: 5, Element #2 SEQ ID NO: 6) [Construct T86]”, the “An initial construct screening result: Light (relative luminescence signal intensity)” value in test [2] (Dox 0 ng/mL) was 12.3; in test [2] (Dox 75 ng/mL), 0.1. For the same molecule, the “An initial construct screening result: Dark (relative luminescence signal intensity)” value in test [2] (Dox 75 ng/mL, dark) is reported as 0.1.
On to `C[C@H]1c2cccc(O)c2C(=O)C2=C(O)[C@]3(O)C(=O)C(C(N)=O)=C(O)[C@@H](N(C)C)[C@@H]3[C@@H](O)[C@@H]21` [Dox, doxycycline], for which, in test [3], the “duration of inhibition of light-induced luciferase expression” value came out at 4 days. Moreover, the “extremely low Dox concentration at which the effect brought about by Dox was observed” value in test [4] (PA-Tet-OFF system) is reported as 1 ng/mL; in test [4] (PA-Tet-ON system), 10 ng/mL.
On to “QT8: RpBphP1-TSTR-TetR(I194T) + 2xNLS-p65AD-HMEF-Q-PAS1 (SEQ ID NO: 28, 27)”, for which the Light came to 152.0 in test [1] (Dox 0 ng/mL); 143.1 in test [1] (Dox 1.0 ng/mL); 112.2 in test [1] (Dox 2.0 ng/mL); 108.7 in test [1] (Dox 3.0 ng/mL); 86.8 in test [1] (Dox 4.0 ng/mL); 63.9 in test [1] (Dox 5.0 ng/mL). Moreover, in test [1] (Dox 10.0 ng/mL), the Light is 7.2. Also, the Dark in test [1] (Dox 1.0 ng/mL) came to 14.5; in test [1] (Dox 2.0 ng/mL), 17.1; in test [1] (Dox 3.0 ng/mL), 16.0; in test [1] (Dox 4.0 ng/mL) it was 15.1; in test [1] (Dox 5.0 ng/mL), 15.2; in test [1] (Dox 10.0 ng/mL), 3.1.

B1: Cry2: Arabidopsis thaliana Cryptochrome 2 photoreceptor binding CIB1 in a blue light-specific manner (protein)
chain: MKMDKKTIVWFRRDLRIEDNPALAAAAHEGSVFPVFIWCPEEEGQFYPGRASRWWMKQSLAHLSQSLKALGSDLTLIKTHNTISAILDCIRVTGATKVVFNHLYDPVSLVRDHTVKEKLVERGISVQSYNGDLLYEPWEIYCEKGKPFTSFNSYWKKCLDMSIESVMLPPPWRLMPITAAAEAIWACSIEELGLENEAEKPSNALLTRAWSPGWSNADKLLNEFIEKQLIDYAKNSKKVVGNSTSLLSPYLHFGEISVRHVFQCARMKQIIWARDKNSEGEESADLFLRGIGLREYSRYICFNFPFTHEQSLLSHLRFFPWDADVDKFKAWRQGRTGYPLVDAGMRELWATGWMHNRIRVIVSSFAVKFLLLPWKWGMKYFWDTLLDADLECDILGWQYISGSIPDGHELDRLDNPALQGAKYDPEGEYIRQWLPELARLPTEWIHHPWDAPLTVLKASGVELGTNYAKPIVDIDTARELLAKAISRTREAQIMIGAAPDEIVADSFEALGANTIKEPGLCPSVSSNDQQVPSAVRYNGSKRVKPEEEEERDMKKSRGFDERELFSTAESSSSSSVFFVSQSCSLASEGKNLEGIQDSSDQITTSLGKNGCK
modifications: Cry2
As for B1, the “half-life of spontaneous dissociation from CIB1” value in test [5] is “about 5.5 minutes”.
